How the values were obtained:
[1] = biological target: human apotransferrin (<0.7% iron-saturated) (Homo sapiens, UniProt P02787); experiment: Control incubation with human apotransferrin (<0.7% iron-saturated); type: biochemical; details: apotransferrin 38 mg/ml
Procedure: (§1) A. 40% Iron-Saturated Human Transferrin. To assess the capacity of the 3 different desferri-Exochelins to remove iron from 40% iron-saturated human transferrin, each of them was incubated for 1, 3, and 24 hours with 40% iron-saturated transferrin such that the ratio of Fe^3+: desferri-Exochelin equaled 10:1. The incubation was carried out in PBS, pH 7.4. Afterwards, the Exochelin and transferrin were separated from each other by centrifugation through a 10,000 dalton cut-off filter. The transferrin (mass 76,000 daltons) was completely excluded by this filter whereas 85% of the Exochelin (mass<1,000) was recovered in the filtrate. To determine the total amount of exochelin recovered, the exochelin in the filtrate was saturated with a 20:1 molar excess of ferric ammonium citrate and subjected to reverse-phase HPLC as described above. To determine the amount of iron-saturated Exochelin in the filtrate at each time point, the filtrate was subjected to reverse-phase HPLC without the addition of iron. The % iron-saturation was calculated as follows: [formula]
C. Apotransferrin (<0.7% Iron-Saturated Human Transferrin). As a control, the three desferri-exochelins were incubated for 3 h and 24 h with human apotransferrin (<0.7% iron-saturated) at a concentration of 38 mg/ml, the same concentration of protein as in the study utilizing 92% iron-saturated transferrin in B above. None of the desferri-exochelins acquired appreciable amounts of iron (Table 6).

[2] = biological target: holo-transferrin (92% iron-saturated human transferrin) (Homo sapiens, UniProt P02787); experiment: Capacity to remove iron from holo-transferrin (92% iron-saturated human transferrin); type: biochemical; details: Fe3+:desferri-Exochelin 10:1
Procedure: as §1
B. Holo-Transferrin (92% Iron-Saturated Human Transferrin). To assess the capacity of the 3 different desferri-Exochelins to remove iron from holo-transferrin (92% iron-saturated human transferring, each of them was incubated for 1, 3, and 24 h with 92% iron-saturated transferrin such that the ratio of Fe^3+: desferri-Exochelin equaled 10:1, as in the aforementioned study with 40% iron-saturated transferrin. The % iron-saturation of the Exochelins was assayed as above.

[3] = Capacity to chelate iron from ferric ammonium citrate solution (reverse-phase HPLC, 450 nm); type: binding; details: for ferri-exochelin eluted from the HPLC column, % of the Exochelin added: absence of ferric ammonium citrate; for capacity to chelate iron (in words): ferric iron in solution; for exochelin eluted from the column in the ferri form: presence of ferric ammonium citrate, 10-fold molar excess of iron
Procedure: A. Capacity to Chelate Iron. To determine if the synthetic desferri-Exochelin 772SM(R) could chelate iron, as does the native form, the Exochelin was dissolved in 0.1% TFA containing ferric ammonium citrate at a 10-fold molar excess of iron to Exochelin. The solution was then loaded on a Bondapak Phenyl 125 Å 10 μm (3.9×300 mm) HPLC column and the Exochelin was subjected to reverse-phase HPLC (High Pressure Liquid Chromatography) on a Rainin (Woburn, Mass.) HPXL system. The Exochelin was eluted with a 0-100% gradient of a buffer consisting of 0.1% TFA and 50% acetonitrile at a flow rate of 1 ml/min. The ferri-exochelins were monitored at 220-nm and 450-nm absorbance. The mass of ferri-exochelin was assayed by measuring the area under the peak at 450-nm and applying a conversion factor derived from assaying known amounts of ferri-exochelin 772SM(R).
A. Capacity to Chelate Iron. The capacity of synthetic Exochelin 772SM(S) to chelate iron from a solution containing a 10-fold molar excess of ferric iron (ferric ammonium citrate) was assayed as described above.

[4] = biological target: T1, 40% iron-saturated human transferrin (Homo sapiens, UniProt P02787); experiment: Capacity to remove iron from 40% iron-saturated human transferrin; type: biochemical; details: Fe3+:desferri-Exochelin 10:1, PBS pH 7.4
Procedure: as §1

[5] = test system: ferri-Exochelin 758SM; experiment: Capacity to remove iron from Ferri-Exochelin 758SM in the same vial (772SM(R) vs 772SM(S)); type: binding; details: Table 3; for % Iron-Saturation 0 hour / % Iron-Saturation 1 hour: 772SM(R), 772SM(S) and 758SM in the same vial; for % of Calculated Iron-Saturation at Equilibrium 0 hour / % of Calculated Iron-Saturation at Equilibrium 1 hour: same vial, assuming comparable affinities
Procedure: To further assess the relative affinities of the stereoisomers desferri-Exochelin 772SM(R) and 772SM(S) for iron, their capacity to remove iron from a different exochelin species in the same vial were compared.
In the experiment,15.6 μg of 1.1% iron-saturated synthetic Exochelin 772SM(R) and 17.4 μg of 1.0% iron-saturated synthetic Exochelin 772SM(S) was mixed with 13.5 μg of 100% iron-saturated native Exochelin 758SM.

[6] = biological target: T1, 40% iron-saturated human transferrin; experiment: Capacity to remove iron from 40% iron-saturated human transferrin; type: biochemical
[7] = listed as Synthetic Desferri-Exochelin 772SM(S)
[8] = listed as synthetic desferri-exochelin 772SM(S)
[9] = listed as synthetic Exochelin 772SM(S)
[10] = listed as Synthetic Desferri-Exochelin 772SM(R)
[11] = listed as Synthetic Desferri-Exochelin 7728M(R)
[12] = listed as synthetic desferri-exochelin 772SM(R)
[13] = listed as synthetic desferri-Exochelin 772SM(R)
[14] = listed as synthetic Exochelin 772SM(R)

human apotransferrin (<0.7% iron-saturated), sequence (P02787 20-698): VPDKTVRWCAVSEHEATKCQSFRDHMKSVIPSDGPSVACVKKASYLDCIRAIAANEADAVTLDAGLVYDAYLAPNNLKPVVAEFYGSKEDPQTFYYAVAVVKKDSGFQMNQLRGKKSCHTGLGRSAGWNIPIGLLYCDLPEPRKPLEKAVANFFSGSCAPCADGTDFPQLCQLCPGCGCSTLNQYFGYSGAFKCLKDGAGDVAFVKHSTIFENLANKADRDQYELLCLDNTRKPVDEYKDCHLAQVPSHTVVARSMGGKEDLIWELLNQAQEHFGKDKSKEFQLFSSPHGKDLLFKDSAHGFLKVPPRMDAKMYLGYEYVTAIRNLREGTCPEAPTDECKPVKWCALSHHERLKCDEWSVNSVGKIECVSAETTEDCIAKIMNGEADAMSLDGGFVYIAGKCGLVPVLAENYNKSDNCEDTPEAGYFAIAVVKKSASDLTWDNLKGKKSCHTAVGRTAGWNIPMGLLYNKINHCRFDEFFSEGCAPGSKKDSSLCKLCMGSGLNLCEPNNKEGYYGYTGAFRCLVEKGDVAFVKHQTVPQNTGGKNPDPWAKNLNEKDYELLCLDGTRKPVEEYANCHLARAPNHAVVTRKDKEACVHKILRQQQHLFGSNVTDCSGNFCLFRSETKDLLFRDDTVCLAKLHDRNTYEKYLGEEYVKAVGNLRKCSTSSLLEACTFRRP
holo-transferrin (92% iron-saturated human transferrin), sequence (P02787 20-698): as above
T1 sequence (P02787 20-698): as above

## COC(=O)CCCCCC(=O)N(O)CCCCC(NC(=O)C1COC(c2ccccc2O)=N1)C(=O)OC(C)CC(=O)NC1CCCCN(O)C1=O [Synthetic 772SM(S), Exochelin 772SM(S)]
[1]; [7]
  Iron-Saturation 0 h: 1.0%
  Iron-Saturation 3 h: 5.0%
  Iron-Saturation 24 h: 4.1%
[2]; [7]
  Iron-Saturation 0 h: 1.0%
  Iron-Saturation 1 h: 18.1%
  Iron-Saturation 3 h: 15.5%
  Iron-Saturation 24 h: 47.2%
[2]; [8]
  Iron-Saturation 24 h: 47.2%
[3]; [9]
  ferri-exochelin eluted from the HPLC column, % of the Exochelin added: 1.03%
  exochelin eluted from the column in the ferri form: fully saturated with iron
[3]; listed as synthetic desferri-Exochelin 772SM(S)
  capacity to chelate iron (in words): rapidly chelates iron in solution
[4]; [7]
  Iron-Saturation 1 h: 14.2%
  Iron-Saturation 3 h: 13.8%
  Iron-Saturation 24 h: 35.3%
[4]; [8]
  Iron-Saturation 24 h: 35.3%
[5]
  % Iron-Saturation 0 hour: 1.0%
  % of Calculated Iron-Saturation at Equilibrium 0 hour: 3.3%
  % Iron-Saturation 1 hour: 25.9%
  % of Calculated Iron-Saturation at Equilibrium 1 hour: 86.6%
[5]; listed as Exochelin 772SM(S)
  % Iron-Saturation 1 hour: 25.9%
  % of Calculated Iron-Saturation at Equilibrium 1 hour: 86.6%
[6]; Fe3+:desferri-Exochelin 10:1, PBS pH 7.4, listed as Synthetic Desferri-Exochelin 772SM(S)
  Iron-Saturation 0 h: 1.0%

## COC(=O)CCCCCC(=O)N(O)CCCCC(NC(=O)C1COC(c2ccccc2O)=N1)C(=O)OC(C)CC(=O)NC1CCCCN(O)C1=O [Synthetic 772SM(R), Exochelin 772SM(R)]
[1]; [10]
  Iron-Saturation 0 h: 1.1%
  Iron-Saturation 3 h: 5.2%
  Iron-Saturation 24 h: 6.9%
[2]; [11]
  Iron-Saturation 0 h: 1.1%
  Iron-Saturation 1 h: 13.6%
  Iron-Saturation 3 h: 31.5%
  Iron-Saturation 24 h: 60.0%
[2]; [12]
  Iron-Saturation 24 h: 60.0%
[3]; [13]
  ferri-exochelin eluted from the HPLC column, % of the Exochelin added: 1.08%
  exochelin eluted from the column in the ferri form: 100%
[3]; [12]
  capacity to chelate iron (in words): rapidly chelates ferric iron in solution
[4]; [10]
  Iron-Saturation 1 h: 6.8%
  Iron-Saturation 3 h: 12.8%
  Iron-Saturation 24 h: 39.2%
[4]; [12]
  Iron-Saturation 24 h: 39.2%
[5]
  % Iron-Saturation 0 hour: 1.1%
  % of Calculated Iron-Saturation at Equilibrium 0 hour: 3.7%
  % Iron-Saturation 1 hour: 28.2%
  % of Calculated Iron-Saturation at Equilibrium 1 hour: 94.3%
[5]; [14]
  % Iron-Saturation 1 hour: 28.2%
  % of Calculated Iron-Saturation at Equilibrium 1 hour: 94.3%
[6]; Fe3+:desferri-Exochelin 10:1, PBS pH 7.4, listed as Synthetic Desferri-Exochelin 772SM(R)
  Iron-Saturation 0 h: 1.1%
